Series [1] can be described thus: Cytotoxicity against human A2780 cells after 72 hrs by MTT assay. The format is cell-based.
Series [2] can be described thus: Cytotoxicity against human SJ-G2 cells after 72 hrs by MTT assay. The format is cell-based.
Series [3] can be described thus: Cytotoxicity against human HT-29 cells after 72 hrs by MTT assay. The format is cell-based.
A short description of series [4]: Cytotoxicity against human DU145 cells after 72 hrs by MTT assay. The format is cell-based, DU-145.
Series [5] in a line: Cytotoxicity against human MCF7 cells after 72 hrs by MTT assay. The format is cell-based.
The nature of series [6]: Cytotoxicity against human BE(2)-C cells after 72 hrs by MTT assay. Type of series: cell-based.
Series [7] is described as follows: Cytotoxicity against human SW480 cells after 72 hrs by MTT assay. The format is cell-based.
The nature of series [8]: Cytotoxicity against human A431 cells after 72 hrs by MTT assay. The format is cell-based, A-431.
Series [9] is described as follows: Cytotoxicity against human H460 cells after 72 hrs by MTT assay. The format is cell-based. The conditions noted are these: NCI-H460 cells.
Series [10] has as its system Haemonchus contortus. The series is described as follows: Nematocidal activity against Haemonchus contortus Haecon 5 strain isolated from helminth-free Merino weaner sheep at 12.5 to 100 uM after 6 days by larval development assay. Type of series: functional, organism-based.

SMILES strings stand for the structures. Calls of active or inactive are those of the source. The rule behind the calls is not given here.

Turning to `O=C1[C@@H]2[C@H](C(=O)N1CCOP(=O)(OCC(Cl)(Cl)Cl)OCC(Cl)(Cl)Cl)[C@H]1CC[C@@H]2O1`, the GI50 at 72 h in series [1], in [2], in series [3], in series [4], in series [5] and in [6] was over 75 µM in each case. Besides, the GI50 at 72 h in series [7], in series [8] and in series [9] was over 75 µM throughout.

As for `CCCCCNC(=O)[C@H]1N(Cc2ccccc2)C(=O)C2=C(C)[C@H]3C=C[C@]21O3`, the inhibition entry in series [10] is “inactive”.

Consider `CCCCNC(=O)C1C(C(=O)O)[C@@H]2CC[C@H]1O2` (stereo partly specified), for which, in series [10], the inhibition result is “inactive”. For the same compound, the GI50 at 72 h in series [1], in series [2], in series [3], in series [4], in series [5] and in series [6] was 10 µM throughout. The GI50 at 72 h in series [7], in series [8] and in series [9] was 10 µM in each case.

With `O=C(O)C1C(C(=O)Nc2ccc(Br)cc2)[C@H]2CC[C@@H]1O2` (stereo partly specified), the inhibition entry in [10] was “inactive”. The GI50 at 72 h in [1], in [2], in series [3], in [4], in series [5] and in [6] was 10 µM each time. The 50% growth inhibitory concentration (GI50) at 72 h in [7], in [8] and in series [9] was 10 µM in each case.

For `CCCCCCCCCCNC(=O)C1C(C(=O)O)[C@@H]2CC[C@H]1O2` (stereo partly specified), the inhibition result in series [10] was “inactive”. For the same compound, the GI50 at 72 h in series [1], in [2], in [3], in series [4], in [5] and in series [6] was 10 µM throughout. For the same compound, the GI50 at 72 h in [7], in [8] and in series [9] was 10 µM throughout.

Turning to `C=CCNC(=O)C1C(C(=O)O)[C@@H]2CC[C@H]1O2` (stereo partly specified), the inhibition result in series [10] was “inactive”. The GI50 at 72 h in series [1], in [2], in series [3], in series [4], in [5] and in series [6] was 10 µM throughout. Besides, the concentration for 50% growth inhibition (GI50) at 72 h in series [7], in series [8] and in series [9] was 10 µM throughout.

For the compound `CCCNC(=O)C1C(C(=O)O)[C@@H]2CC[C@H]1O2` (stereo partly specified), the inhibition entry in [10] is “inactive”. Further, the GI50 at 72 h in series [1], in [2], in series [3], in series [4], in series [5] and in [6] was 10 µM in each case. Moreover, the GI50 at 72 h in [7], in series [8] and in [9] was 10 µM in each case.

Take `COC(=O)CNC(=O)[C@@H]1N(CCCCCO)C(=O)C2=C(C)[C@H]3C=C[C@]21O3`: the inhibition entry in series [10] was “inactive”.

As to `CN(C)CCOc1ccc(N2C(=O)[C@@H]3[C@H](C2=O)[C@H]2CC[C@@H]3O2)cc1`, the GI50 at 72 h in series [1], in series [2], in series [3], in series [4], in series [5] and in [6] was over 75 µM throughout. Besides, the GI50 at 72 h in series [7], in series [8] and in series [9] was over 75 µM in each case.

For the compound `C/C(=N/Nc1ccccc1)c1ccccc1NC(=O)C1C(C(=O)O)[C@@H]2CC[C@H]1O2` (stereo partly specified), the inhibition entry in series [10] is “inactive”. In addition, the GI50 at 72 h in [1], in series [2], in series [3], in series [4], in series [5] and in series [6] was 10 µM each time. The GI50 at 72 h in [7], in [8] and in [9] was 10 µM each time.

Consider `CCCCCCCCCCCCCCN1C(=O)[C@@H]2[C@H](C1=O)[C@H]1CC[C@@H]2O1`, for which the inhibition entry in [10] is “inactive”.

As for `O=C(O)C1C(C(=O)Nc2ccc(O)cc2)[C@H]2CC[C@@H]1O2` (stereo partly specified), the inhibition entry in series [10] was “inactive”. The GI50 at 72 h in series [1], in series [2], in series [3], in series [4], in series [5] and in series [6] was 10 µM each time. Moreover, the GI50 at 72 h in series [7], in series [8] and in series [9] was 10 µM throughout.

As for `O=C(O)C1C(C(=O)Nc2ccc(CO)cc2)[C@H]2CC[C@@H]1O2` (stereo partly specified), in [10], the inhibition result is “inactive”. Further, the GI50 at 72 h in [1], in [2], in series [3], in series [4], in series [5] and in series [6] was 10 µM throughout. The 50% growth inhibitory concentration (GI50) at 72 h in series [7], in [8] and in [9] was 10 µM in each case.

With `O=C(O)CCCNC(=O)C1C(C(=O)O)[C@@H]2CC[C@H]1O2` (stereo partly specified), the inhibition entry in [10] was “inactive”. For the same compound, the GI50 at 72 h in [1], in series [2], in series [3], in series [4], in series [5] and in [6] was 10 µM throughout. Besides, the GI50 at 72 h in series [7], in [8] and in series [9] was 10 µM throughout.

With `CCCCCNC(=O)[C@@H]1N(CCCN(C)C)C(=O)C2=C(CCCC)[C@H]3C=C[C@]21O3`, the inhibition entry in series [10] was “inactive”.

As for `O=C(O)C1C(C(=O)NCCCc2ccccc2)[C@H]2CC[C@@H]1O2` (stereo partly specified), the inhibition entry in series [10] was “inactive”. Moreover, the concentration for 50% growth inhibition (GI50) at 72 h in series [1], in series [2], in series [3], in series [4], in series [5] and in [6] was 10 µM each time. For the same compound, the GI50 at 72 h in [7], in series [8] and in series [9] was 10 µM in each case.

Consider `CCCCCCCCN1C(=O)C2=C(C)[C@H]3C=C[C@@]2(O3)[C@H]1C(=O)NCC(=O)OCC`, for which the inhibition entry in series [10] was “inactive”.

On to `CCCCCCCCN1C(=O)C2=C(C)[C@H]3C=C[C@@]2(O3)[C@@H]1C(=O)NCC(=O)OCC`, for which the inhibition entry in series [10] was “inactive”.

Regarding `CCCCCNC(=O)[C@H]1N(CCCN(C)C)C(=O)C2=C(CCCC)[C@H]3C=C[C@]21O3`, the inhibition entry in series [10] was “inactive”.

As for `Cc1cc(C)c(NC(=O)C2C(C(=O)O)[C@@H]3CC[C@H]2O3)c(C)c1` (stereo partly specified), the inhibition entry in series [10] is “inactive”. The GI50 at 72 h in series [1], in series [2], in [3], in series [4], in series [5] and in series [6] was 10 µM each time. Also, the GI50 at 72 h in series [7], in series [8] and in series [9] was 10 µM each time.

Turning to `O=C(O)C1C(C(=O)NCc2ccc(Cl)cc2)[C@H]2CC[C@@H]1O2` (stereo partly specified), the inhibition entry in [10] is “inactive”. The GI50 at 72 h in series [1], in series [2], in series [3], in [4], in series [5] and in [6] was 10 µM in each case. Further, the GI50 at 72 h in [7], in series [8] and in series [9] was 10 µM in each case.

As for `O=C1[C@@H]2[C@H](C(=O)N1c1ncccc1OCc1ccccc1)[C@H]1CC[C@@H]2O1`, the GI50 at 72 h in series [1], in [2], in series [3], in series [4], in series [5] and in series [6] was over 75 µM throughout. In addition, the GI50 at 72 h in [7], in series [8] and in [9] was over 75 µM throughout.

On to `CCCCCNC(=O)[C@@H]1N(Cc2ccccc2)C(=O)C2=C(C)[C@H]3C=C[C@]21O3`, for which, in series [10], the inhibition entry is “inactive”.

In the case of `CCCCCCCCCCCCCCCCCCN1C(=O)[C@@H]2[C@H](C1=O)[C@H]1CC[C@@H]2O1`, in series [10], the inhibition result was “inactive”.

As to `CCCCCCCCCCCCN1C(=O)[C@@H]2[C@H](C1=O)[C@H]1CC[C@@H]2O1`, in series [10], the inhibition entry was “inactive”.

Take `CN(C)CCOc1ccccc1N1C(=O)[C@@H]2[C@H](C1=O)[C@H]1CC[C@@H]2O1`: the GI50 at 72 h in series [1], in series [2], in series [3], in [4], in series [5] and in series [6] was over 75 µM each time. Also, the GI50 at 72 h in series [7], in series [8] and in [9] was over 75 µM in each case.

Consider `COC(=O)CNC(=O)[C@H]1N(CCCCCO)C(=O)C2=C(C)[C@H]3C=C[C@]21O3`, for which the inhibition result in series [10] is “inactive”.

Regarding `O=C(O)[C@H](Cc1ccc(O)cc1)N1C(=O)[C@@H]2[C@H](C1=O)[C@H]1CC[C@@H]2O1`, the GI50 at 72 h in series [1], in series [2], in series [3], in series [4], in series [5] and in series [6] was over 75 µM throughout. The GI50 at 72 h in [7], in [8] and in series [9] was over 75 µM each time.

These data come from ChEMBL document CHEMBL1777719, “Norcantharidin analogues with nematocidal activity in Haemonchus contortus” (Bioorg Med Chem Lett, 2011).
